Data set [1] in a line: Cytotoxicity against rat L6 cells. As to conditions: read-out: MIC. In kind it is cell-based.
Data set [2] deals with Trypanosoma brucei rhodesiense. Put plainly: Antitrypanosomal activity against Trypanosoma brucei rhodesiense. In kind it is functional, organism-based.
The test system of a further data set is Trypanosoma cruzi. Briefly: Antitrypanosomal activity against Trypanosoma cruzi. In kind it is functional, organism-based.
The test system of data set [3] is Plasmodium falciparum. Briefly: Antiplasmodial activity against chloroquine-sensitive Plasmodium falciparum 3D7. Format: functional, organism-based.
Data set [4] relates to Plasmodium falciparum. Put plainly: Antiplasmodial activity against chloroquine-resistant Plasmodium falciparum K1. Format: functional, organism-based.
A further data set deals with Leishmania donovani. Briefly: Antileishmanial activity against Leishmania donovani. In kind it is functional, organism-based.
The next data set relates to L6. Put plainly: Cytotoxicity against Leishmania donovani infected rat L6 cells. Format: cell-based.

≈ marks a conversion by molar mass, not a printed value.

Regarding `COc1cc2c(c(OC)c1-c1c(C)cc3cccc(OC)c3c1O)C(C)=N[C@@H](C)C2` [ANCISTROCLADIDINE], in data set [1], the MCC was determined as 28.3 µg/mL. Moreover, the IC50 in data set [2] was determined as 2 µg/mL (≈ 4.93 µM); in the data set on Trypanosoma cruzi, 23.4 µg/mL (≈ 57.7 µM); with Plasmodium falciparum [3], 1.9 µg/mL (≈ 4.69 µM); with Plasmodium falciparum [4] it was 0.3 µg/mL (≈ 0.74 µM); with Leishmania donovani it was 2.9 µg/mL (≈ 7.15 µM).
`O=C(Cn1ccnc1[N+](=O)[O-])NCc1ccccc1` [BENZNIDAZOLE]: the midpoint of inhibition with Trypanosoma cruzi, the IC50, lay at 0.29 µg/mL (≈ 1.11 µM).
In the case of `COc1cc(OC)c(-c2c(C)cc(OC)c3c(OC)cccc23)c2c1C(C)=N[C@@H](C)C2`, the MCC in data set [1] was > 90 µg/mL. Moreover, the IC50 in data set [2] turned out to be 5.2 µg/mL (≈ 12.4 µM); with Trypanosoma cruzi, 60.5 µg/mL (≈ 144 µM); in the data set on Plasmodium falciparum [3] it was 5.4 µg/mL (≈ 12.9 µM); with Plasmodium falciparum [4], 2.2 µg/mL (≈ 5.24 µM); with Leishmania donovani it was 30 µg/mL (≈ 71.5 µM).
As to `COc1cc(OC)c2c(c1-c1c(C)cc(OC)c3c(OC)cccc13)C[C@H](C)N(C)[C@H]2C` [O,N-Dimethylancistrocladine], the MCC in data set [1] amounted to 42.9 µg/mL. Moreover, the IC50 in data set [2] was 5.4 µg/mL (≈ 12.4 µM); in the data set on Trypanosoma cruzi it was 65.3 µg/mL (≈ 150 µM); in the data set with Plasmodium falciparum [3], 34.1 µg/mL (≈ 78.3 µM); in the data set with Plasmodium falciparum [4], 3.6 µg/mL (≈ 8.27 µM). For the same compound, in the data set on L6, the Activity result is given as “Toxic”.
As to `COc1c(-c2c(C)cc3cccc(OC)c3c2O)c(O)cc2c1[C@@H](C)N(C)[C@@H](C)C2` [ANCISTROTANZANINE C], the MCC in data set [1] was 40.7 µg/mL. The IC50 was determined as 1.3 µg/mL (≈ 3.19 µM) in data set [2], 14 µg/mL (≈ 34.4 µM) in the data set on Trypanosoma cruzi, 4.2 µg/mL (≈ 10.3 µM) with Plasmodium falciparum [3] and 0.1 µg/mL (≈ 0.245 µM) in the data set with Plasmodium falciparum [4]. In addition, the Activity result in the data set on L6 was “Toxic”.
On to `Nc1nc(N)nc(Nc2ccc([As]3SCC(CO)S3)cc2)n1` (configuration not stated) [MELARSOPROL], for which, in data set [2], it took 0.0031 µg/mL to reach half-maximal inhibition (IC50).
As for `COc1cc2c(c(OC)c1-c1c(C)cc3cccc(OC)c3c1O)[C@@H](C)N(C)[C@@H](C)C2` [ANCISTROTECTORINE], the MCC in data set [1] came out at 19.9 µg/mL. The IC50 was 4.3 µg/mL (≈ 10.2 µM) in data set [2], 4.3 µg/mL (≈ 10.2 µM) with Trypanosoma cruzi, 9.1 µg/mL (≈ 21.6 µM) in the data set with Plasmodium falciparum [3] and 0.7 µg/mL (≈ 1.66 µM) in the data set with Plasmodium falciparum [4]. In the data set with L6, the Activity entry is listed as “Toxic”.

The values are drawn from ChEMBL document CHEMBL1151193, “Ancistrotanzanine C and related 5,1'- and 7,3'-coupled naphthylisoquinoline alkaloids from Ancistrocladus tanzaniensis” (J Nat Prod, 2004).
